Test results as given in the supplement of paper PMC11451515.

Tested on: NOMO1
Test: cell viability relative to DMSO control; higher = less cytotoxic
Details: 48 h
In short: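 Cells were incubated for 48 h at 37°C before CellTiter-Glo One luminescence was read. The cells were NOMO1 or SEM (500 cells/well) or P12-Ichikawa (1000 cells/well) leukemia cells, adapted for at least four passages in each medium and seeded in 1536-well plates (5 μl). Dosing used library compounds in DMSO applied by pin over 11 threefold points, 47 μM to 0.79 nM. Viability is the per-plate percentage of DMSO wells, with cell-free wells as background.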

[1] = RPMI 5 mM glucose + 10% FBS, 0.000781 µM
[2] = RPMI 5 mM glucose + 10% FBS, 0.00234 µM
[3] = RPMI 5 mM glucose + 10% FBS, 0.00702 µM
[4] = RPMI 5 mM glucose + 10% FBS, 0.0211 µM
[5] = RPMI 5 mM glucose + 10% FBS, 0.0632 µM
[6] = RPMI 5 mM glucose + 10% FBS, 0.19 µM
[7] = RPMI 5 mM glucose + 10% FBS, 0.569 µM
[8] = RPMI 5 mM glucose + 10% FBS, 1.71 µM
[9] = RPMI 5 mM glucose + 10% FBS, 5.12 µM
[10] = RPMI 5 mM glucose + 10% FBS, 15.4 µM
[11] = RPMI 5 mM glucose + 10% FBS, 46.1 µM
[12] = RPMI 5 mM glucose + 10% dialyzed FBS, 0.000781 µM
[13] = RPMI 5 mM glucose + 10% dialyzed FBS, 0.00234 µM
[14] = RPMI 5 mM glucose + 10% dialyzed FBS, 0.00702 µM
[15] = RPMI 5 mM glucose + 10% dialyzed FBS, 0.0211 µM
[16] = RPMI 5 mM glucose + 10% dialyzed FBS, 0.0632 µM
[17] = RPMI 5 mM glucose + 10% dialyzed FBS, 0.19 µM
[18] = RPMI 5 mM glucose + 10% dialyzed FBS, 0.569 µM
[19] = RPMI 5 mM glucose + 10% dialyzed FBS, 1.71 µM
[20] = RPMI 5 mM glucose + 10% dialyzed FBS, 5.12 µM
[21] = RPMI 5 mM glucose + 10% dialyzed FBS, 15.4 µM
[22] = RPMI 5 mM glucose + 10% dialyzed FBS, 46.1 µM
[23] = HPLM + 10% dialyzed FBS, 0.000781 µM
[24] = HPLM + 10% dialyzed FBS, 0.00234 µM
[25] = HPLM + 10% dialyzed FBS, 0.00702 µM
[26] = HPLM + 10% dialyzed FBS, 0.0211 µM
[27] = HPLM + 10% dialyzed FBS, 0.0632 µM
[28] = HPLM + 10% dialyzed FBS, 0.19 µM
[29] = HPLM + 10% dialyzed FBS, 0.569 µM
[30] = HPLM + 10% dialyzed FBS, 1.71 µM
[31] = HPLM + 10% dialyzed FBS, 5.12 µM
[32] = HPLM + 10% dialyzed FBS, 15.4 µM
[33] = HPLM + 10% dialyzed FBS, 46.1 µM

| SMILES | cell viability [1] [%] | cell viability [2] [%] | cell viability [3] [%] | cell viability [4] [%] | cell viability [5] [%] | cell viability [6] [%] | cell viability [7] [%] | cell viability [8] [%] | cell viability [9] [%] | cell viability [10] [%] | cell viability [11] [%] | cell viability [12] [%] | cell viability [13] [%] | cell viability [14] [%] | cell viability [15] [%] | cell viability [16] [%] | cell viability [17] [%] | cell viability [18] [%] | cell viability [19] [%] | cell viability [20] [%] | cell viability [21] [%] | cell viability [22] [%] | cell viability [23] [%] | cell viability [24] [%] | cell viability [25] [%] | cell viability [26] [%] | cell viability [27] [%] | cell viability [28] [%] | cell viability [29] [%] | cell viability [30] [%] | cell viability [31] [%] | cell viability [32] [%] | cell viability [33] [%] |
| --- | --- | --- | --- | --- | --- | --- | --- | --- | --- | --- | --- | --- | --- | --- | --- | --- | --- | --- | --- | --- | --- | --- | --- | --- | --- | --- | --- | --- | --- | --- | --- | --- | --- |
| CN(C)CCC=C1C2=C(C=CC=C2)\C=C/C3=C1C=CC=C3 | 108 | 100 | 95.5 | 98 | 95.9 | 90.3 | 98.7 | 106 | 94 | 77 | 16.4 | 98.7 | 99 | 107 | 104 | 114 | 103 | 107 | 95.3 | 99.3 | 66.6 | 21.2 | – | – | – | – | – | – | – | – | – | – | – |
| CCOP(=O)(OCC)C(C)NC(=O)N(CCCl)N=O (stereo not drawn) | 120 | 115 | 124 | 134 | 121 | 131 | 126 | 139 | 141 | 163 | 154 | 112 | 116 | 138 | 141 | 137 | 137 | 134 | 136 | 133 | 140 | 128 | – | – | – | – | – | – | – | – | – | – | – |
| CCCCc1oc2ccc(NS(C)(=O)=O)cc2c1C(=O)c1ccc(OCCCN(CCCC)CCCC)cc1 | 86.9 | 98 | 103 | 98.3 | 97.1 | 93.4 | 103 | 28.8 | 17.8 | 16.4 | 9.17 | 83.2 | 95.5 | 102 | 102 | 93.7 | 106 | 103 | 66 | 28.3 | 20.6 | 12.5 | 109 | 107 | 100 | 105 | 96.7 | 113 | 114 | 64.7 | 34 | 27.5 | 14.4 |
| CC(C)c1ccc2oc3nc(N)c(C(=O)O)cc3c(=O)c2c1 | 121 | 121 | 128 | 137 | 136 | 128 | 123 | 134 | 133 | 130 | 122 | – | – | – | – | – | – | – | – | – | – | – | – | – | – | – | – | – | – | – | – | – | – |
| CN(C)c1ccc(C(=O)NCCCCCCC(=O)NO)cc1 | 91.1 | 90.6 | 103 | 92.3 | 95.8 | 99.8 | 91.4 | 92 | 6.22 | 2.81 | 2.37 | 102 | 103 | 124 | 106 | 112 | 105 | 106 | 89 | 7.05 | 3.1 | 3.05 | 106 | 103 | 104 | 94.9 | 106 | 83.5 | 112 | 89 | 7.42 | 3.13 | 3.88 |
| CC1(C)O[C@H]2CC(=O)OC[C@]23[C@H]2CC[C@@]4(C)[C@H](c5ccoc5)OC(=O)[C@H]5O[C@]54[C@]2(C)C(=O)C[C@@H]13 | 96.8 | 89.8 | 93.7 | 96.1 | 101 | 105 | 98.9 | 108 | 98.4 | 103 | 97.8 | 87.2 | 95.7 | 83 | 101 | 102 | 98.5 | 96.7 | 110 | 99.1 | 109 | 98 | 114 | 91.3 | 98.8 | 84.5 | 99.4 | 110 | 99.2 | 115 | 114 | 103 | 87.7 |
| CCCn1c(=O)c2[nH]c(-c3cnn(Cc4cccc(C(F)(F)F)c4)c3)nc2n(CC)c1=O | 92.7 | 93.1 | 101 | 103 | 103 | 105 | 102 | 98.8 | 82.7 | 69.8 | 61.5 | 98.6 | 104 | 92.1 | 81.6 | 105 | 103 | 85.3 | 80.6 | 76.9 | 65.2 | 44.7 | 111 | 113 | 102 | 125 | 115 | 116 | 96 | 82.4 | 64.1 | 56.4 | 43.5 |
| CNC(=O)c1c(F)cccc1Nc1nc(Nc2cc3c(cc2OC)CCN3C(=O)CN(C)C)nc2[nH]ccc12 | 110 | 118 | 128 | 106 | 112 | 117 | 115 | 113 | 116 | 117 | 27.7 | 107 | 111 | 105 | 126 | 117 | 112 | 108 | 103 | 99.2 | 102 | 23.6 | 89.3 | 118 | 99.9 | 122 | 111 | 88.7 | 87.2 | 76.5 | 58.8 | 62 | 6.14 |
| O=P(O)(O)C(O)(Cc1cccnc1)P(=O)(O)[O][Na] (stereo not drawn) | 85.3 | 93.6 | 90.8 | 22.8 | 90.7 | 85 | 93 | 84.7 | 83.7 | 85.9 | 86.6 | 76.4 | 80.2 | 82.8 | 25.2 | 88.2 | 93.5 | 103 | 92.6 | 97.6 | 93.6 | 106 | 71.5 | 102 | 98.3 | 33 | 107 | 97.2 | 119 | 116 | 116 | 102 | 106 |
